# Measurements: ChEMBL document CHEMBL5143632, “Arylalkynyl amide-type peroxisome proliferator-activated receptor γ (PPARγ)-selective antagonists covalently bind to the PPARγ ligand binding domain with a unique binding mode” (Bioorg Med Chem Lett, 2022)
# The source made the active and inactive calls. No cut-off for these calls is given here.
# What was measured:
# [1] = molecular target: T1, Peroxisome proliferator-activated receptor gamma (Homo sapiens) (UniProt P37231); assay: Covalent binding affinity to apo PPARgamma ligand binding domain (unknown origin) assessed as adduct formation measured within few minutes by ESI-MS analysis
# T1 sequence (whole entry): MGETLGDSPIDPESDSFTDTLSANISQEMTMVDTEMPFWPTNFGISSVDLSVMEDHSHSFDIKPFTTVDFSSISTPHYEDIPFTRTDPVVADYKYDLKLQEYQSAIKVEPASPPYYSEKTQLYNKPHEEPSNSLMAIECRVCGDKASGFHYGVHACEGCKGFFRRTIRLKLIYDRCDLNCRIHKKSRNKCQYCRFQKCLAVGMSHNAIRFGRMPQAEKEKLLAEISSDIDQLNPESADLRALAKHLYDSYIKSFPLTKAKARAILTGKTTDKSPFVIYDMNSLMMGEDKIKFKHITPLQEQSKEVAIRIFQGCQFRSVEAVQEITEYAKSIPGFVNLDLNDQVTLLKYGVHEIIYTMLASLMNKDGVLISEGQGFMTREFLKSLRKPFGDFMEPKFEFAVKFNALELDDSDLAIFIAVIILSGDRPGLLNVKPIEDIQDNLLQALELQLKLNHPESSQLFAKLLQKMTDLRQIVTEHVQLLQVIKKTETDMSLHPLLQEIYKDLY
# [2] = molecular target: T1, Peroxisome proliferator-activated receptor gamma (Homo sapiens); assay: Covalent binding affinity to apo PPARgamma ligand binding domain (unknown origin) assessed as adduct formation incubated for 24 hrs by ESI-MS analysis
Activity [1],Activity [2],Structure (SMILES)
Active,,O=C(Nc1ccccc1)c1cc([N+](=O)[O-])ccc1Cl
,Active,CCCOc1ccc(NC(=O)C#Cc2ccccc2)cc1CNC(=O)c1ccc(-c2ncccn2)cc1
,Active,COc1ccc(NC(=O)C#Cc2ccccc2)cc1CNC(=O)c1ccc(N2CCCCC2)cc1
